Measured values: patent US20260070945A1, “MACROCYCLIC IMMUNOMODULATORS” (Bristol-Myers Squibb Company, priority 2022, published 2026)
Where a SMILES comes first, the peptide text is derived from it. Bridges are numbered along the chain shown (N, C = ends). [ ]: non-standard residue; d: D form. The star is where a group is joined. ξ: configuration not given here. Phe(4-COOH) = N[C@@H](Cc1ccc(C(=O)O)cc1)C(=O)O; Bip = N[C@@H](Cc1ccc(-c2ccccc2)cc1)C(=O)O; Phe(3-Me) = Cc1cccc(C[C@H](N)C(=O)O)c1; NMeR = CN[C@@H](CCCNC(=N)N)C(=O)O; NMeE = CN[C@@H](CCC(=O)O)C(=O)O; Cha = N[C@@H](CC1CCCCC1)C(=O)O; Cit = NC(=O)NCCC[C@H](N)C(=O)O; Ile(3ξ) = CCC(C)[C@H](N)C(=O)O; NMeN = CN[C@@H](CC(N)=O)C(=O)O; Thr(3ξ) = CC(O)[C@H](N)C(=O)O; Carboxymethyl = O=C(O)C*; NMeA = CN[C@@H](C)C(=O)O; Aun = NCCCCCCCCCCC(=O)O; Dab = NCC[C@H](N)C(=O)O; AEEA = NCCOCCOCC(=O)O; Sar = CNCC(=O)O

Biological target: T1, PD-1/PD-L1 interaction (PE-labeled human PD-L1-Ig binding to Jurkat cell line over-expressing human PD-1) (Homo sapiens, UniProt Q15116)
T1 construct: expressed in transfected cells; host or cells: Jurkat
T1 sequence (Q15116 25-288): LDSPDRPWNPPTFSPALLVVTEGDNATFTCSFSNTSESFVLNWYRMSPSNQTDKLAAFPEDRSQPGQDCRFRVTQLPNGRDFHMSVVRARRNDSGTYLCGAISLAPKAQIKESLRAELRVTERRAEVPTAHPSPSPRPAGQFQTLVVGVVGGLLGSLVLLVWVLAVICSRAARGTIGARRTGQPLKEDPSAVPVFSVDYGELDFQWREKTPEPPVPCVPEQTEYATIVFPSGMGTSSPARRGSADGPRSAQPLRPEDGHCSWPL
Experiment: Jurkat-PD-1 Cell Binding High-Content Screening Assay (CBA)
Conditions: Jurkat-hPD-1 cells, PE-labeled PD-L1-Ig 20 nM final; read-out: Jurkat HPD1 PDL1 IC50
In short: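 High-content imaging read-out of PE-PD-L1-Ig binding (20 nM final, 1 h) to Jurkat-hPD-1 cells, after 2 h compound exposure at 37 °C in DMEM with 10% FCS. Nuclei counterstained with Hoechst 33342 after paraformaldehyde fixation.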

**Q.** Cc1cccc(C[C@@H]2NC(=O)[C@H](CC(=O)O)NC(=O)[C@H](Cc3ccc(C(=O)O)cc3)NC(=O)[C@H](Cc3ccc(OCC(=O)O)cc3)NC(=O)CSC[C@@H](C(=O)NCCOCCOCC(=O)NCCCCCCCCCCC(=O)O)NC(=O)[C@H](CCC(=O)O)NC(=O)[C@H](C(C)C)NC(=O)[C@H](CC3CCCCC3)NC(=O)[C@H](CCN)NC(=O)[C@@H](CC(C)C)NC(=O)[C@H](C)N(C)C(=O)[C@H](C(C)C)NC(=O)[C@H](Cc3ccc(-c4ccccc4)cc3)NC(=O)[C@H](CC(C)C)NC2=O)c1 [Example 2296] ({CH2CO}-Y(Carboxymethyl)[Phe(4-COOH)]D[Phe(3-Me)]L[Bip]V[NMeA][dL][Dab][Cha]VEC[AEEA][Aun]-OH; thioether N-14) was tested. Which IC50 did it give?
**A.** 34.6 nM

**Q.** Which IC50 does the source give for CCC(C)[C@@H]1NC(=O)[C@H](Cc2ccc(-c3ccccc3)cc2)NC(=O)[C@H](C(C)C)NC(=O)[C@H](Cc2c[nH]c3ccccc23)NC(=O)[C@H](CC(=O)O)NC(=O)[C@H](Cc2ccc(OCC(=O)O)cc2)NC(=O)[C@H](Cc2ccc(OCC(=O)O)cc2)NC(=O)CSC[C@@H](C(=O)N[C@H](CC(N)=O)C(=O)NCCCCCCCCCCC(=O)O)NC(=O)[C@H](CCCNC(N)=O)NC(=O)[C@H](C(C)C)NC(=O)[C@H](CC2CCCCC2)NC(=O)[C@H](CCN)NC(=O)[C@@H](CC(C)C)NC(=O)[C@H](C)N(C)C1=O (stereo partly drawn) [Example 2297] ({CH2CO}-Y(Carboxymethyl)Y(Carboxymethyl)DWV[Bip][Ile(3ξ)][NMeA][dL][Dab][Cha]V[Cit]C[dN][Aun]-OH; thioether N-14) here?
**A.** 8.5 nM

**Q.** Which IC50 does the source give for CCC(C)[C@@H]1NC(=O)[C@H](Cc2ccc(-c3ccccc3)cc2)NC(=O)[C@H](C(C)C)NC(=O)[C@H](Cc2cccc(C)c2)NC(=O)[C@H](CC(=O)O)NC(=O)[C@H](Cc2ccc(OCC(=O)O)cc2)NC(=O)[C@H](CCCNC(=N)N)NC(=O)CSC[C@@H](C(=O)N[C@H](CC(N)=O)C(=O)NCCCCCCCCCCC(=O)O)NC(=O)[C@H](C(C)O)NC(=O)[C@H](C(C)C)NC(=O)[C@H](CC2CCCCC2)NC(=O)[C@H](CCN)NC(=O)[C@@H](CC(C)C)NC(=O)[C@H](C)N(C)C1=O (stereo partly drawn) [Example 2298] ({CH2CO}-RY(Carboxymethyl)D[Phe(3-Me)]V[Bip][Ile(3ξ)][NMeA][dL][Dab][Cha]V[Thr(3ξ)]C[dN][Aun]-OH; thioether N-14) here?
**A.** 24.7 nM

**Q.** Which IC50 does the source give for Cc1cccc(C[C@@H]2NC(=O)[C@H](CC(=O)O)NC(=O)[C@H](Cc3ccc(OCC(=O)O)cc3)NC(=O)[C@H](C(C)O)NC(=O)CSC[C@@H](C(=O)N(C)[C@@H](CCC(=O)O)C(=O)NCCCCCCCCCCC(=O)O)NC(=O)[C@H](CO)NC(=O)[C@H](C(C)C)NC(=O)[C@H](CC3CCCCC3)NC(=O)[C@H](CCN)NC(=O)[C@@H](CC(C)C)NC(=O)[C@H](C)N(C)C(=O)[C@H](C(C)C)NC(=O)[C@H](Cc3ccc(-c4ccccc4)cc3)NC(=O)[C@H](C(C)C)NC2=O)c1 (stereo partly drawn) [Example 2299] ({CH2CO}-[Thr(3ξ)]Y(Carboxymethyl)D[Phe(3-Me)]V[Bip]V[NMeA][dL][Dab][Cha]VSC[NMeE][Aun]-OH; thioether N-14) here?
**A.** 130 nM

**Q.** Which IC50 does the source give for CC(=O)NCCCC[C@@H]1NC(=O)[C@H](CC2CCCCC2)NC(=O)[C@H](CCN)NC(=O)[C@@H](CC(C)C)NC(=O)[C@H](C)N(C)C(=O)[C@H](C(C)C)NC(=O)[C@H](Cc2ccc(-c3ccccc3)cc2)NC(=O)[C@H](C(C)C)NC(=O)[C@H](Cc2cccc(C)c2)NC(=O)[C@H](CC(=O)O)NC(=O)[C@H](Cc2ccc(OCC(=O)O)cc2)NC(=O)[C@H](C(C)O)NC(=O)CSC[C@@H](C(=O)N[C@@H](CCN)C(=O)NCCCCCCCCCCC(=O)O)NC(=O)[C@H](CO)NC1=O (stereo partly drawn) [Example 2300] ({CH2CO}-[Thr(3ξ)]Y(Carboxymethyl)D[Phe(3-Me)]V[Bip]V[NMeA][dL][Dab][Cha]K(Ac)SC[Dab][Aun]-OH; thioether N-14) here?
**A.** 15.6 nM

**Q.** With Cc1cccc(C[C@@H]2NC(=O)[C@H](CC(=O)O)NC(=O)[C@H](Cc3ccc(OCC(=O)O)cc3)NC(=O)[C@H](C(C)O)NC(=O)CSC[C@@H](C(=O)N(C)[C@@H](CCCNC(=N)N)C(=O)NCCCCCCCCCCC(=O)O)NC(=O)[C@H](CO)NC(=O)[C@H](C(C)C)NC(=O)[C@H](CC3CCCCC3)NC(=O)[C@H](CCN)NC(=O)[C@@H](CC(C)C)NC(=O)[C@H](C)N(C)C(=O)[C@H](C(C)C)NC(=O)[C@H](Cc3ccc(-c4ccccc4)cc3)NC(=O)[C@H](C(C)C)NC2=O)c1 (stereo partly drawn) [Example 2301] ({CH2CO}-[Thr(3ξ)]Y(Carboxymethyl)D[Phe(3-Me)]V[Bip]V[NMeA][dL][Dab][Cha]VSC[NMeR][Aun]-OH; thioether N-14) as the compound, how does the IC50 read?
**A.** 151 nM

**Q.** How did the IC50 turn out when Cc1cccc(C[C@@H]2NC(=O)[C@H](CC(=O)O)NC(=O)[C@H](Cc3ccc(OCC(=O)O)cc3)NC(=O)[C@H](C(C)O)NC(=O)CSC[C@@H](C(=O)N(C)[C@@H](CC(N)=O)C(=O)NCCCCCCCCCCC(=O)O)NC(=O)[C@H](CO)NC(=O)[C@H](C(C)C)NC(=O)[C@H](CC3CCCCC3)NC(=O)[C@H](CCN)NC(=O)[C@@H](CC(C)C)NC(=O)[C@H](C)N(C)C(=O)[C@H](C(C)C)NC(=O)[C@H](Cc3ccc(-c4ccccc4)cc3)NC(=O)[C@H](C(C)C)NC2=O)c1 (stereo partly drawn) [Example 2302] ({CH2CO}-[Thr(3ξ)]Y(Carboxymethyl)D[Phe(3-Me)]V[Bip]V[NMeA][dL][Dab][Cha]VSC[NMeN][Aun]-OH; thioether N-14) was run?
**A.** 28.2 nM

**Q.** For Cc1cccc(C[C@@H]2NC(=O)[C@H](CC(=O)O)NC(=O)[C@H](Cc3ccc(OCC(=O)O)cc3)NC(=O)[C@H](C(C)O)NC(=O)CSC[C@@H](C(=O)N[C@@H](CCN)C(=O)NCCCCCCCCCCC(=O)O)NC(=O)[C@H](C(C)O)NC(=O)[C@H](C(C)C)NC(=O)[C@H](CC3CCCCC3)NC(=O)[C@H](CCN)NC(=O)[C@@H](CC(C)C)NC(=O)[C@H](C)N(C)C(=O)[C@H](CCC(=O)O)NC(=O)[C@H](Cc3ccc(-c4ccccc4)cc3)NC(=O)[C@H](CCC(=O)O)NC2=O)c1 (stereo partly drawn) [Example 2303] ({CH2CO}-[Thr(3ξ)]Y(Carboxymethyl)D[Phe(3-Me)]E[Bip]E[NMeA][dL][Dab][Cha]V[Thr(3ξ)]C[Dab][Aun]-OH; thioether N-14), which IC50 is on record?
**A.** 46 nM

**Q.** CC(=O)NCCCC[C@@H]1NC(=O)[C@H](C(C)C)NC(=O)[C@H](CC2CCCCC2)NC(=O)[C@H](CCN)NC(=O)[C@@H](CC(C)C)NC(=O)[C@H](C)N(C)C(=O)[C@H](C(C)C)NC(=O)[C@H](Cc2ccc(-c3ccccc3)cc2)NC(=O)[C@H](C(C)C)NC(=O)[C@H](Cc2cccc(C)c2)NC(=O)[C@H](CC(=O)O)NC(=O)[C@H](Cc2ccc(OCC(=O)O)cc2)NC(=O)[C@H](C(C)O)NC(=O)CSC[C@@H](C(=O)N(C)CC(=O)NCCOCCOCC(=O)NCCCCCCCCCCC(=O)O)NC1=O (stereo partly drawn) [Example 2304] ({CH2CO}-[Thr(3ξ)]Y(Carboxymethyl)D[Phe(3-Me)]V[Bip]V[NMeA][dL][Dab][Cha]VK(Ac)C[Sar][AEEA][Aun]-OH; thioether N-14) was tested. Which IC50 did it give?
**A.** 31.3 nM

**Q.** With Cc1cccc(C[C@@H]2NC(=O)[C@H](CC(=O)O)NC(=O)[C@H](Cc3ccc(OCC(=O)O)cc3)NC(=O)[C@H](C(C)O)NC(=O)CSC[C@@H](C(=O)N(C)[C@@H](CC(N)=O)C(=O)NCCOCCOCC(=O)NCCCCCCCCCCC(=O)O)NC(=O)[C@H](CCCNC(N)=O)NC(=O)[C@H](C(C)C)NC(=O)[C@H](CC3CCCCC3)NC(=O)[C@H](CCN)NC(=O)[C@@H](CC(C)C)NC(=O)[C@H](C)N(C)C(=O)[C@H](C(C)C)NC(=O)[C@H](Cc3ccc(-c4ccccc4)cc3)NC(=O)[C@H](C(C)C)NC2=O)c1 (stereo partly drawn) [Example 2305] ({CH2CO}-[Thr(3ξ)]Y(Carboxymethyl)D[Phe(3-Me)]V[Bip]V[NMeA][dL][Dab][Cha]V[Cit]C[NMeN][AEEA][Aun]-OH; thioether N-14) as the compound, how does the IC50 read?
**A.** 19.9 nM

**Q.** With Cc1cccc(C[C@@H]2NC(=O)[C@H](CC(=O)O)NC(=O)[C@H](Cc3ccc(OCC(=O)O)cc3)NC(=O)[C@H](CCCNC(=N)N)NC(=O)CSC[C@@H](C(=O)N[C@@H](CCN)C(=O)NCCCCCCCCCCC(=O)O)NC(=O)[C@H](C(C)O)NC(=O)[C@H](C(C)C)NC(=O)[C@H](CC3CCCCC3)NC(=O)[C@H](CCN)NC(=O)[C@@H](CC(C)C)NC(=O)[C@H](C)N(C)C(=O)[C@H](Cc3ccc(OCC(=O)O)cc3)NC(=O)[C@H](Cc3ccc(-c4ccccc4)cc3)NC(=O)[C@H](CCC(=O)O)NC2=O)c1 (stereo partly drawn) [Example 2306] ({CH2CO}-RY(Carboxymethyl)D[Phe(3-Me)]E[Bip]Y(Carboxymethyl)[NMeA][dL][Dab][Cha]V[Thr(3ξ)]C[Dab][Aun]-OH; thioether N-14) as the compound, how does the IC50 read?
**A.** 14.3 nM

**Q.** For Cc1cccc(C[C@@H]2NC(=O)[C@H](CC(=O)O)NC(=O)[C@H](Cc3ccc(OCC(=O)O)cc3)NC(=O)[C@H](CCCNC(=N)N)NC(=O)CSC[C@@H](C(=O)N[C@@H](CCN)C(=O)NCCCCCCCCCCC(=O)O)NC(=O)[C@H](C(C)O)NC(=O)[C@H](C(C)C)NC(=O)[C@H](CC3CCCCC3)NC(=O)[C@H](CCN)NC(=O)[C@@H](CC(C)C)NC(=O)[C@H](C)N(C)C(=O)[C@H](Cc3ccc(OCC(=O)O)cc3)NC(=O)[C@H](Cc3ccc(-c4ccccc4)cc3)NC(=O)[C@H](Cc3ccc(OCC(=O)O)cc3)NC2=O)c1 (stereo partly drawn) [Example 2307] ({CH2CO}-RY(Carboxymethyl)D[Phe(3-Me)]Y(Carboxymethyl)[Bip]Y(Carboxymethyl)[NMeA][dL][Dab][Cha]V[Thr(3ξ)]C[Dab][Aun]-OH; thioether N-14), which IC50 is on record?
**A.** 13.8 nM

**Q.** With Cc1cccc(C[C@@H]2NC(=O)[C@H](CC(=O)O)NC(=O)[C@H](Cc3ccc(OCC(=O)O)cc3)NC(=O)[C@H](CCCNC(=N)N)NC(=O)CSC[C@@H](C(=O)N[C@@H](CCN)C(=O)NCCCCCCCCCCC(=O)O)NC(=O)[C@H](C(C)O)NC(=O)[C@H](C(C)C)NC(=O)[C@H](CC3CCCCC3)NC(=O)[C@H](CCN)NC(=O)[C@@H](CC(C)C)NC(=O)[C@H](C)N(C)C(=O)[C@H](Cc3ccc(OCC(=O)O)cc3)NC(=O)[C@H](Cc3ccc(-c4ccccc4)cc3)NC(=O)[C@H](C(C)C)NC2=O)c1 (stereo partly drawn) [Example 2308] ({CH2CO}-RY(Carboxymethyl)D[Phe(3-Me)]V[Bip]Y(Carboxymethyl)[NMeA][dL][Dab][Cha]V[Thr(3ξ)]C[Dab][Aun]-OH; thioether N-14) as the compound, how does the IC50 read?
**A.** 21.1 nM
